Reference: the NIST ThermoML archive (doi:10.1016/j.tca.2013.08.017)
Numbers after ± are expanded uncertainties.

How the values were obtained:
[1] = 101.33 kPa, Crystal, X-ray diffraction
[2] = molar heat capacity at constant pressure; conditions: 101.33 kPa, Small sample (50 mg) DSC

## CC(C)(C)n1ncc2c(C(F)(F)F)n[nH]c(=O)c21
[1]; 293 K
  mass density: 1451 ± 7 kg/m3
[2]; 273 K, Crystal
  molar heat capacity at constant pressure: 174 ± 3.5 J/K/mol
[2]; 283 K, Crystal
  molar heat capacity at constant pressure: 202.9 ± 4.1 J/K/mol
[2]; 293 K, Crystal
  molar heat capacity at constant pressure: 231.9 ± 4.6 J/K/mol
[2]; 303 K, Crystal
  molar heat capacity at constant pressure: 260.8 ± 5.2 J/K/mol
[2]; 313 K, Crystal
  molar heat capacity at constant pressure: 289.8 ± 5.8 J/K/mol
[2]; 323 K, Crystal
  molar heat capacity at constant pressure: 318.7 ± 6.4 J/K/mol
[2]; 333 K, Crystal
  molar heat capacity at constant pressure: 347.6 ± 7 J/K/mol
[2]; 343 K, Crystal
  molar heat capacity at constant pressure: 376.6 ± 7.5 J/K/mol
[2]; 353 K, Crystal
  molar heat capacity at constant pressure: 405.5 ± 8.1 J/K/mol
[2]; 363 K, Crystal
  molar heat capacity at constant pressure: 434.4 ± 8.7 J/K/mol
[2]; 373 K, Crystal
  molar heat capacity at constant pressure: 463.4 ± 9.3 J/K/mol
[2]; 383 K, Crystal
  molar heat capacity at constant pressure: 492.3 ± 9.8 J/K/mol
[2]; 393 K, Crystal
  molar heat capacity at constant pressure: 521.2 ± 10 J/K/mol
[2]; 403 K, Crystal
  molar heat capacity at constant pressure: 550.2 ± 11 J/K/mol
[2]; 413 K, Crystal
  molar heat capacity at constant pressure: 579.1 ± 12 J/K/mol
[2]; 423 K, Crystal
  molar heat capacity at constant pressure: 608.1 ± 12 J/K/mol
[2]; 448 K, Liquid
  molar heat capacity at constant pressure: 813.3 ± 16 J/K/mol
[2]; 458 K, Liquid
  molar heat capacity at constant pressure: 923.4 ± 18 J/K/mol
[2]; 463 K, Liquid
  molar heat capacity at constant pressure: 978.4 ± 20 J/K/mol

## CC(C)(C)n1ncc2c(-c3ccccc3)n[nH]c(=O)c21
[1]; 296 K
  mass density: 1298 ± 6 kg/m3
[2]; 273 K, Crystal
  molar heat capacity at constant pressure: 944.5 ± 19 J/K/mol
[2]; 283 K, Crystal
  molar heat capacity at constant pressure: 1034.5 ± 21 J/K/mol
[2]; 293 K, Crystal
  molar heat capacity at constant pressure: 1124.7 ± 22 J/K/mol
[2]; 303 K, Crystal
  molar heat capacity at constant pressure: 1216.4 ± 24 J/K/mol
[2]; 313 K, Crystal
  molar heat capacity at constant pressure: 1310.8 ± 26 J/K/mol
[2]; 323 K, Crystal
  molar heat capacity at constant pressure: 1409.1 ± 28 J/K/mol
[2]; 333 K, Crystal
  molar heat capacity at constant pressure: 1512.5 ± 30 J/K/mol
[2]; 343 K, Crystal
  molar heat capacity at constant pressure: 1622.1 ± 32 J/K/mol
[2]; 353 K, Crystal
  molar heat capacity at constant pressure: 1739.2 ± 35 J/K/mol
[2]; 363 K, Crystal
  molar heat capacity at constant pressure: 1865 ± 37 J/K/mol
[2]; 373 K, Crystal
  molar heat capacity at constant pressure: 2000.7 ± 40 J/K/mol
[2]; 383 K, Crystal
  molar heat capacity at constant pressure: 2147.5 ± 43 J/K/mol
[2]; 393 K, Crystal
  molar heat capacity at constant pressure: 2306.5 ± 46 J/K/mol
[2]; 403 K, Crystal
  molar heat capacity at constant pressure: 2479 ± 50 J/K/mol
[2]; 413 K, Crystal
  molar heat capacity at constant pressure: 2666.2 ± 53 J/K/mol
[2]; 423 K, Crystal
  molar heat capacity at constant pressure: 2869.3 ± 57 J/K/mol
